How the values were obtained:
Type in all cases: cell-based
[1] = tested on: U937 cells (human monocytic cell line); experiment: Pam2CSK4-induced TNF-α secretion inhibition in PMA-differentiated U937 cells; conditions: U-937, U937 cells differentiated with PMA, read-out: TNF-α production inhibition grade (IC50)
Description: (§1) To evaluate anti-inflammatory efficacy, U937 cells (human monocytic cell line) were differentiated into macrophages using PMA (phorbol 12-myristate 13-acetate) and then induced an inflammatory response with Pam2CSK4 (Pam2CysSerLys4) or BzATP (2′(3′)—O-(4-Benzoylbenzoyl)adenosine 5′-triphosphate), the efficacy of taurine-bile acid derivatives in suppressing inflammatory cytokine (IL-1β, TNF-α) production was measured.
(§2) Using PMA, U937 cells were differentiated into macrophages, and the extent of TNF-α secretion inhibition was measured in an experimental group where taurine-bile acid derivatives was treated, followed by induction of inflammatory response with Pam2CSK4, and in the experimental group in which an inflammatory response was induced with BzATP, the extent to which IL-1β secretion among cytokines was suppressed was measured.
(§3) The ability of taurine-bile acid derivatives to inhibit cytokine production was expressed in terms of IC50 (μM) values. The standards for TNF α inhibition ability are A: less than 0.5, B: 0.5 to less than 1.0, C: 1.0 to less than 2.0, D: 2.0 or more, and the IL-1β inhibition ability grade standards are A: less than 0.05, B: 0.05 to less than 0.10, C: 0.10 or more and less than 0.20, D: 0.20 or more.

[2] = tested on: J774A.1 (Mouse BALB/c monocyte macrophage cell line) cells; experiment: LPS+ATP-induced IL-1β secretion inhibition in J774A.1 cells; conditions: J774.A1, 1 μM compound, graded compared to taurodeoxycholic acid (positive control), read-out: IL-1β production inhibition grade
Description: (§4) To evaluate anti-inflammatory efficacy, an inflammatory response was induced in J774A.1 (Mouse BALB/c monocyte macrophage cell line) cells derived from mouse macrophages by LPS (lipopolysaccharide) and LPS+ATP (adenosine triphosphate), and the efficacy of taurine-bile acid derivatives to inhibit the production of inflammatory cytokines (IL-1β, TNF-α) was measured. After treating J774A.1 cells with 1 μM of a taurine-bile acid derivative, the degree to which the secretion of TNF-α among cytokines was suppressed was measured in the experimental group in which an inflammatory response was induced by LPS, and the extent to which IL-1β secretion among cytokines was suppressed was measured in the experimental group in which an inflammatory response was induced with LPS+ATP. The ability of taurine-bile acid derivatives to inhibit cytokine production was graded compared to taurodeoxycholic acid, a positive control. The grading criteria are A: over 100%, B: over 50% and under 100%, C: between 20% and under 50%, and D: under 20%.

[3] = tested on: J774A.1 (Mouse BALB/c monocyte macrophage cell line) cells; experiment: LPS-induced TNF-α secretion inhibition in J774A.1 cells; conditions: J774.A1, 1 μM compound, graded compared to taurodeoxycholic acid (positive control), read-out: TNF-α production inhibition grade
Description: as §4

[4] = tested on: U937 cells (human monocytic cell line); experiment: BzATP-induced IL-1β secretion inhibition in PMA-differentiated U937 cells; conditions: U-937, U937 cells differentiated with PMA, read-out: IL-1β production inhibition grade (IC50)
Description: as §1, §2, §3

Compound | IC50 [1] [nM] | inhibition at 1 µM [2] [%] | inhibition at 1 µM [3] [%] | IC50 [4] [nM]
CC[C@H]1[C@@H](O)[C@@H]2[C@H](C[C@H](O)[C@]3(C)[C@@H]([C@H](C)CCC(=O)N[C@H](CS(=O)(=O)O)c4ccccc4)CC[C@@H]23)[C@@]2(C)CC[C@@H](O)C[C@@H]12 [NC50018] | ≥ 2000 | 50 to 100 | < 20 | 50 to 100
CC[C@H]1[C@@H](O)[C@@H]2[C@H](CC[C@]3(C)[C@@H]([C@H](C)CCC(=O)N4CCC[C@@H](S(=O)(=O)O)C4)CC[C@@H]23)[C@@]2(C)CC[C@@H](O)C[C@@H]12 [NC40010] | 500 to 1000 | < 20 | 50 to 100 | ≥ 200
C[C@H](CCC(=O)N1CCC[C@H](S(=O)(=O)O)C1)[C@H]1CC[C@H]2[C@@H]3CC[C@@H]4C[C@H](O)CC[C@]4(C)[C@H]3CC[C@]12C [NC10060] | ≥ 2000 | 50 to 100 | < 20 | ≥ 200
CC(C)C[C@@H](CS(=O)(=O)O)NC(=O)CC[C@@H](C)[C@H]1CC[C@H]2[C@@H]3[C@H](O)C[C@@H]4C[C@H](O)CC[C@]4(C)[C@H]3C[C@H](O)[C@]12C [NC20030] | < 500 | < 20 | < 20 | ≥ 200
CC[C@H]1[C@@H](O)[C@@H]2[C@H](CC[C@]3(C)[C@@H]([C@H](C)CCC(=O)N[C@@H](CS(=O)(=O)O)c4ccccc4)CC[C@@H]23)[C@@]2(C)CC[C@@H](O)C[C@@H]12 [NC40019] | 1000 to 2000 | > 100 | < 20 | 100 to 200
C[C@H](CCC(=O)Nc1ccc(S(=O)(=O)O)cc1)[C@H]1CC[C@H]2[C@@H]3CC[C@@H]4C[C@H](O)CC[C@]4(C)[C@H]3CC[C@]12C [NC10015] | ≥ 2000 | < 20 | < 20 | < 50
C[C@H](CS(=O)(=O)O)NC(=O)CC[C@@H](C)[C@H]1CC[C@H]2[C@@H]3[C@H](O)C[C@@H]4C[C@H](O)CC[C@]4(C)[C@H]3C[C@H](O)[C@]12C [NC20029] | < 500 | < 20 | < 20 | 50 to 100
C[C@H](CCC(=O)N1CCC[C@@H]1CS(=O)(=O)O)[C@H]1CC[C@H]2[C@@H]3CC[C@@H]4C[C@H](O)CC[C@]4(C)[C@H]3CC[C@]12C [NC10076] | ≥ 2000 | > 100 | < 20 | 50 to 100
C[C@H](CCC(=O)N1CC[C@@H](S(=O)(=O)O)C1)[C@H]1CC[C@H]2[C@@H]3CC[C@@H]4CC(=O)CC[C@]4(C)[C@H]3CC[C@]12C [NC30034] | 500 to 1000 | < 20 | < 20 | ≥ 200
C[C@H](CCC(=O)NC(C)(C)CS(=O)(=O)O)[C@H]1CC[C@H]2[C@@H]3[C@H](O)C[C@@H]4C[C@H](O)CC[C@]4(C)[C@H]3C[C@H](O)[C@]12C [NC20013] | 1000 to 2000 | > 100 | < 20 | < 50
C[C@H](CCC(=O)NC(C)(C)CS(=O)(=O)O)[C@H]1CC[C@H]2[C@@H]3CC[C@@H]4C[C@H](O)CC[C@]4(C)[C@H]3C[C@H](O)[C@]12C [NC10029] | ≥ 2000 | > 100 | < 20 | 50 to 100
C[C@H](CCC(=O)NC(C)(C)CS(=O)(=O)O)[C@H]1CC[C@H]2[C@@H]3CC[C@@H]4CC(=O)CC[C@]4(C)[C@H]3CC[C@]12C [NC30013] | 500 to 1000 | 50 to 100 | 50 to 100 | ≥ 200
C[C@H](CCC(=O)N[C@H](Cc1ccccc1)CS(=O)(=O)O)[C@H]1CC[C@H]2[C@@H]3CC[C@@H]4C[C@H](O)CC[C@]4(C)[C@H]3CC[C@]12C [NC10066] | 1000 to 2000 | > 100 | < 20 | < 50
C[C@H](CS(=O)(=O)O)NC(=O)CC[C@@H](C)[C@H]1CC[C@H]2[C@@H]3CC[C@@H]4CC(=O)CC[C@]4(C)[C@H]3CC[C@]12C [NC30029] | 500 to 1000 | 20 to 50 | < 20 | ≥ 200
C[C@H](CCC(=O)NC[C@H](C)S(=O)(=O)O)[C@H]1CC[C@H]2[C@@H]3CC[C@@H]4CC(=O)CC[C@]4(C)[C@H]3CC[C@]12C [NC30022] | ≥ 2000 | 20 to 50 | 20 to 50 | ≥ 200
C[C@H](CCC(=O)N1CC(S(=O)(=O)O)C1)[C@H]1CC[C@H]2[C@@H]3CC[C@@H]4C[C@H](O)CC[C@]4(C)[C@H]3CC[C@]12C [NC10063] | 500 to 1000 | > 100 | < 20 | < 50
C[C@H](CCC(=O)N[C@@H](Cc1ccccc1)CS(=O)(=O)O)[C@H]1CC[C@H]2[C@@H]3CC[C@@H]4C[C@H](O)CC[C@]4(C)[C@H]3CC[C@]12C [NC10065] | 1000 to 2000 | > 100 | < 20 | 100 to 200
CC[C@H]1[C@@H](O)[C@@H]2[C@H](C[C@H](O)[C@]3(C)[C@@H]([C@H](C)CCC(=O)N[C@@H](CO)CS(=O)(=O)O)CC[C@@H]23)[C@@]2(C)CC[C@@H](O)C[C@@H]12 [NC50024] | ≥ 2000 | 20 to 50 | < 20 | ≥ 200
C[C@H](CCC(=O)N1CCC(CCS(=O)(=O)O)CC1)[C@H]1CC[C@H]2[C@@H]3CC[C@@H]4C[C@H](O)CC[C@]4(C)[C@H]3C[C@H](O)[C@]12C [NC10008] | < 500 | > 100 | > 100 | < 50
C[C@H](CCC(=O)N[C@@H](Cc1ccccc1)CS(=O)(=O)O)[C@H]1CC[C@H]2[C@@H]3[C@H](O)C[C@@H]4C[C@H](O)CC[C@]4(C)[C@H]3C[C@H](O)[C@]12C [NC20014] | 500 to 1000 | > 100 | < 20 | < 50
C[C@H](CCC(=O)N1CCC(S(=O)(=O)O)CC1)[C@H]1CC[C@H]2[C@@H]3CC[C@@H]4C[C@H](O)CC[C@]4(C)[C@H]3C[C@H](O)[C@]12C [NC10011] | < 500 | > 100 | > 100 | < 50
C[C@H](CCC(=O)N(CCS(=O)(=O)O)Cc1ccccc1)[C@H]1CC[C@H]2[C@@H]3[C@H](O)C[C@@H]4C[C@H](O)CC[C@]4(C)[C@H]3C[C@H](O)[C@]12C [NC20005] | 500 to 1000 | > 100 | < 20 | 50 to 100
C[C@H](CCC(=O)N1CCC[C@@H](S(=O)(=O)O)C1)[C@H]1CC[C@H]2[C@@H]3[C@H](O)C[C@@H]4C[C@H](O)CC[C@]4(C)[C@H]3C[C@H](O)[C@]12C [NC20010] | 1000 to 2000 | 50 to 100 | < 20 | < 50
C[C@H](CCC(=O)N(CCS(=O)(=O)O)C1CCOCC1)[C@H]1CC[C@H]2[C@@H]3CC[C@@H]4C[C@H](O)CC[C@]4(C)[C@H]3CC[C@]12C [NC10059] | 1000 to 2000 | > 100 | < 20 | < 50
C[C@H](CCC(=O)N1CC[C@H](S(=O)(=O)O)C1)[C@H]1CC[C@H]2[C@@H]3[C@H](O)C[C@@H]4C[C@H](O)CC[C@]4(C)[C@H]3C[C@H](O)[C@]12C [NC20033] | 1000 to 2000 | 20 to 50 | < 20 | 50 to 100
